Laboratory results from paper PMC11233931, “Remodeling tumor‐associated macrophage for anti‐cancer effects by rational design of irreversible inhibition of mitogen‐activated protein kinase‐activated protein kinase 2” (MedComm, 2024).

Legend:
[1] = test system: VEGF mRNA in bone marrow-derived macrophages (BMDMs); experiment: RT-PCR of VEGF in IL-4/IL-13 stimulated BMDMs; format: cell-based, mouse; conditions: IL-4/IL-13, 12 h
Excerpt: Following this line of investigation, we employed siRNA for the transient knockdown of MK2 in THP‐1 monocyte‐ differentiated macrophages. […] M2 macrophages play a pivotal role in promoting tumor angiogenesis through the secretion of critical factors like VEGF, which facilitate tumor neovascularization.[17] […] These findings further validate the significance of MK2 in the M2 polarization of macrophages and illustrate how compound 11, by targeting MK2, suppresses the pro‐tumorigenic phenotype of macrophages.
(§1) Total RNA was extracted from cultured cells using the EZ‐press RNA Purification Kit (EZBioscience). Complementary DNA was synthesized using the ABScript III RT Master Mix for qPCR with gDNA remover (ABclonal Technology) and was quantified with primers listed in Table S5. The relative mRNA expression levels were quantified through qPCR using the SYBR green gene expression assay (ABclonal Technology).
(§2) Figure S3 Inhibition of pro-tumorigenic M2-like polarization in macrophages by compound 11. (A) Illustrates the treatment effects on various macrophage cells using Western blot analysis post IL-4/IL-13 exposure (30 minutes or the specified time period). (B) Examines CD206 expression in RAW264.7 cells via flow cytometry post 48hours treatment of compound 11 and IL-4/IL-13. […] IL-4/IL-13 (20 ng/mL) served as the stimulation control, while untreated cells were the baseline control. […]

[2] = test system: CD206 expression in RAW264.7 cells; experiment: Flow cytometry of CD206 in IL-4/IL-13 stimulated RAW264.7; format: cell-based, mouse; conditions: RAW264.7, IL-4/IL-13, 48 h
Excerpt: A previous study has reported that MK2 fostered M2‐like polarization of TAMs, driving a protumor and proangiogenic phenotype which in turn accelerates tumor progression.[21] We thus assessed the influence of compound 11 on macrophage polarization and function. Our experiments used human THP‐1 monocyte induced macrophages, mouse RAW264.7 macrophages, and mouse bone marrow‐derived macrophages (BMDM). These cells were induced into M2‐like macrophages using the classic IL‐4 and IL‐13 stimuli.
In the in vitro analysis, cells were harvested, stained with surface antibodies, and subsequently fixed and permeabilized using IC Buffer following manufacturer's guidelines. Antibodies targeting intracellular molecules were used for further staining as cells were incubated for an additional 30 min at 4°C. These cells were then filtered using a 300‐mesh cell sieve prior to analysis via CytoFLEX (Beckman Coulter Life Sciences).
as §2

[3] = target: T1, p70S6Kb (Homo sapiens, UniProt Q9UBS0); experiment: Eurofins kinase selectivity profile, p70S6Kb; format: biochemical
T1 construct: purchased Eurofins (Celle Lévescault)
T1 sequence (Q9UBS0 whole entry): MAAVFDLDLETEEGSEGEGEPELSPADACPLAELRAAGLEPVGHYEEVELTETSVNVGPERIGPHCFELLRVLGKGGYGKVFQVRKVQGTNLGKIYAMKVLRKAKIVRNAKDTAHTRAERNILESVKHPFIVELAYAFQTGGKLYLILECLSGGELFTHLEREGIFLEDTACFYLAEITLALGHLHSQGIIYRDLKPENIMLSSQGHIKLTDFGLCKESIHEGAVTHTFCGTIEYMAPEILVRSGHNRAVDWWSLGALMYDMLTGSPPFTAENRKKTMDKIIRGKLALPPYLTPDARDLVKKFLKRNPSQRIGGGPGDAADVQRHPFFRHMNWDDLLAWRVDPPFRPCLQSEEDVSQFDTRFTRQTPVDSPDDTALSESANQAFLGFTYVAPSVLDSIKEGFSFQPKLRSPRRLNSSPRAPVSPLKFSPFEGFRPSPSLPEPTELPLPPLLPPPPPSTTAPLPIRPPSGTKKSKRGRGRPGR
Experimental: Subsequently, to ascertain whether the high potency of compound 11 was specific for MK2, an additional 380 human recombinant protein kinases were screened.
To assess the impact of various compounds on MK2 kinase activity, we utilized the ADP‐Glo Assay Kit (Promega) following the manufacturer's instructions. Luminescence measurements were taken using a SpectraMax Paradigm reader. The inhibition percentage was calculated using the following formula: ((specific signalDMSO control − specific signal inhibitor)/(specific signalDMSO control)) × 100%. The IC50 values were determined employing dose–response curve fitting via Prism (Graph Pad). Additionally, Eurofins company (Celle Lévescault) conducted the analysis on compound 11’s inhibitory activity against 380 other human recombinant kinases at various concentrations.

[4] = test system: TNF-α, IL-6 and IL-1β mRNA in RAW264.7 macrophage cell line; experiment: RT-PCR of cytokine mRNA in LPS-stimulated RAW264.7 macrophages; format: cell-based, mouse; conditions: 3 h pre-treatment, LPS 100 ng/mL 3 h
Excerpt: MK2 is recognized for inducing the production of pathological cytokines that fuel inflammation, including IL‐6, TNF‐α, and IL‐1β. These cytokines are the classic downstream target gene of MK2 and are identified as significant contributors to the risk of inflammation‐driven cancer,[34], [35], [36] such as colorectal cancer and hepatocellular carcinoma. Therefore, we assessed the transcriptional levels of these typical downstream cytokines in human monocytic THP‐1 cell‐line‐derived macrophage and the mouse RAW264.7 macrophage cell line under the influence of compound 11. […] Taken together, our findings corroborate that compound 11 effectively impedes the transcription and production of these key MK2 downstream pro‐inflammatory cytokines.
FIGURE 4 Targeting cellular MK2 signaling with irreversible inhibition by compound 11. […] (C) The inhibitory effects of compound 11 on TNF‐α and IL‐6 production in LPS‐stimulated RAW264.7 macrophages for 24 h, measured by ELISA. […]
as §1

[5] = Cell viability assay (CCK-8), HEK293; format: cell-based; conditions: HEK293 cells (embryo kidney), HEK293, human embryo kidney, read-out: IC50 (μM) mean ± SD, cytotoxicity
Experimental: In cellular experiments, cells are seeded into either 6-well or 96-well plates and incubated overnight, proceeding with treatments as described in the figure legends or methods section. The cell inoculation numbers are outlined as follows: For assays measuring cell viability, between 3,000 to 5,000 cells are seeded per well in 96-well plates. For other cellular assays, the seeding density ranges from 5×10^5 to 1×10^6 cells per well in 6-well plates.
Cells was plated into 96-well plates and incubated overnight prior to introduction of varying concentrations of compounds or control solvent. Following a 72-hour exposure period, cell viability was determined using a Cell Counting Kit-8 assay (Life-iLab, China). Dose-response curves were fitted using a four-parameter method facilitated by SoftMax Pro, which was subsequently used for the computation of IC50 values.

C=CC(=O)Nc1cc(-c2cc(-c3cc4c([nH]3)CCNC4=O)ccn2)ccc1OC(F)(F)F [compound 11]
effect on relative mRNA level of VEGF [1]: inhibited
effect on CD206 expression [2]: A similar result
IC50 [3]: > 1000 nM
inhibition at 0.01 µM ([3]; p70S6K(h), 10 nM, read-out: Inhibition rate): -9%
inhibition at 0.1 µM ([3]; p70S6K(h), 100 nM, read-out: Inhibition rate): -16%
inhibition at 1 µM ([3]; p70S6K(h), 1000 nM, read-out: Inhibition rate): -6%
effect on LPS-induced TNF-α, IL-6 and IL-1 mRNA expression [4]: significantly inhibited
IC50 at 72 h [5]: 29.9 ± 7.2 µM
